This note sets out measurements from patent publication US8299077B2 (Roche Palo Alto LLC, priority 2009, dated 2012).

SMILES strings stand for the structures.

By IC50 is commonly meant the midpoint of a concentration-inhibition curve.

This assay deals with B cell receptor-mediated activation of B cells in human blood (CD69 expression). As to the kind of experiment: Inhibition of B cell activation in whole blood measured by CD69 expression. Format: cell-based. As to conditions: anti-IgM stimulation, 20 h, 50% decrease of CD69-positive cells that are also CD20-positive. The procedure: Inhibition of B Cell Activation in Whole Blood Measured by CD69 Expression
A procedure to test the ability of Btk inhibitors to suppress B cell receptor-mediated activation of B cells in human blood is as follows:
Human whole blood (HWB) is obtained from healthy volunteers, with the following restrictions: 24 hr drug-free, non-smokers. Blood is collected by venipuncture into Vacutainer tubes anticoagulated with sodium heparin. Test compounds are diluted to ten times the desired starting drug concentration in PBS (20×), followed by three-fold serial dilutions in 10% DMSO in PBS to produce a nine point dose-response curve. 5.5 μl of each compound dilution is added in duplicate to a 2 ml 96-well V bottom plate (Analytical Sales and Services, #59623-23); 5.5 μl of 10% DMSO in PBS is added to control and no-stimulus wells. HWB (100 μl) is added to each well, and after mixing the plates are incubated at 37 C, 5% CO2, 100% humidity for 30 minutes. Goat F(ab′)2 anti-human IgM (Southern Biotech, #2022-14) (10 μl of a 500 μg/ml solution, 50 μg/ml final concentration) is added to each well (except the no-stimulus wells) with mixing and the plates are incubated for an additional 20 hours.
At the end of the 20 hour incubation, samples are incubated with florescent-probe-labeled anti-bodies (15 μl PE Mouse anti-Human CD20, BD Pharmingen, #555623, and/or 20 ul APC Mouse anti-Human CD69, BD Pharmingen #555533) for 30 minutes, at 37 C, 5% CO2, 100% humidity. Included are induced control, unstained and single stains for compensation adjustments and initial voltage settings. Samples are then lysed with 1 ml of 1× Pharmingen Lyse Buffer (BD Pharmingen #555899), and plates are centrifuged at 1800 rpm for 5 minutes. Supernatants are removed via suction and the remaining pellets are lysed again with another 1 ml of 1× Pharmingen Lyse Buffer, and plates are spun down as before. Supernatants are aspirated and remaining pellets are washed in FACs buffer (PBS+1% FBS). After a final spin, the supernantants are removed and pellets are resuspended in 180 μl of FACs buffer. Samples are transferred to a 96 well plate suitable to be run on the HTS 96 well system on the BD LSR II flow cytometer.
Using appropriate excitation and emission wavelengths for the fluorophores used, data are acquired and percent positive cell values are obtained using Cell Quest Software. Results are initially analyzed by FACS analysis software (Flow Jo). […] The IC50 values are calculated using XLfit software version 3, equation 201.
In turn, `CC(C)NCc1ccc(Nc2cc(-c3cccc(-n4ccc5cc(C6CC6)cc(F)c5c4=O)c3CO)cn(C)c2=O)nc1` [Example I-78, 6-Cyclopropyl-8-fluoro-2-(2-hydroxymethyl-3-{5-[5-(isopropylamino-methyl)-pyridin-2-ylamino]-1-methyl-6-oxo-1,6-dihydro-pyridin-3-yl}-phenyl)-2H-isoquinolin-1-one] had an IC50 of 20 nM.

Turning to `CN1CCN(Cc2ccc(Nc3cc(-c4cccc(-n5ccc6cc(C7CC7)cc(F)c6c5=O)c4CO)cn(C)c3=O)nc2)CC1` [Example I-73, 6-Cyclopropyl-8-fluoro-2-(2-hydroxymethyl-3-{1-methyl-5-[5-(4-methyl-piperazin-1-ylmethyl)-pyridin-2-ylamino]-6-oxo-1,6-dihydro-pyridin-3-yl}-phenyl)-2H-isoquinolin-1-one], the IC50 is 24 nM. Regarding `Cn1cc(-c2cccc(-n3ccc4cc(C(C)(C)O)cc(F)c4c3=O)c2CO)cc(Nc2ccc(N3CCC(C)(O)CC3)cn2)c1=O` [Example I-58, 8-Fluoro-6-(1-hydroxy-1-methyl-ethyl)-2-{2-hydroxymethyl-3-[5-(4-hydroxy-4-methyl-3,4,5,6-tetrahydro-2H-[1,3′]bipyridinyl-6′-ylamino)-1-methyl-6-oxo-1,6-dihydro-pyridin-3-yl]-phenyl}-2H-isoquinolin-1-one], the IC50 was found to be 6 nM. For the molecule `CCNC(=O)Nc1cc(-c2cccc(N3CCc4cc(C(C)(C)C#N)cc(F)c4C3=O)c2CO)cn(C)c1=O` [Example I-5, 1-(5-{3-[6-(Cyano-dimethyl-methyl)-8-fluoro-1-oxo-3,4-dihydro-1H-isoquinolin-2-yl]-2-hydroxymethyl-phenyl}-1-methyl-2-oxo-1,2-dihydro-pyridin-3-yl)-3-ethyl-urea], it took 1080 nM to reach half-maximal inhibition (IC50). Consider `Cn1cc(-c2cccc(-n3ccc4cc(C5(C)CC5)cc(F)c4c3=O)c2CO)cc(Nc2ccc(C(=O)N3CCOCC3)cn2)c1=O` [Example I-60, 8-Fluoro-2-(2-hydroxymethyl-3-{1-methyl-5-[5-(morpholine-4-carbonyl)-pyridin-2-ylamino]-6-oxo-1,6-dihydro-pyridin-3-yl}-phenyl)-6-(1-methyl-cyclopropyl)-2H-isoquinolin-1-one], for which the concentration for half-maximal inhibition (IC50) was 16 nM.

`Cn1cc(-c2cccc(-n3ccc4cc(C5CC5)cc(F)c4c3=O)c2CO)cc(Nc2ccc(C(C)(C)C(=O)O)cn2)c1=O` [Example I-68, 2-(6-{5-[3-(6-Cyclopropyl-8-fluoro-1-oxo-1H-isoquinolin-2-yl)-2-hydroxymethyl-phenyl]-1-methyl-2-oxo-1,2-dihydro-pyridin-3-ylamino}-pyridin-3-yl)-2-methyl-propionic acid] yielded an IC50 of 213 nM.

`CCNCc1ccc(Nc2cc(-c3cccc(-n4ncc5cc(C(C)(C)C)cc(F)c5c4=O)c3CO)cn(C)c2=O)nc1` [Example I-42, 6-tert-Butyl-2-{3-[5-(5-ethylaminomethyl-pyridin-2-ylamino)-1-methyl-6-oxo-1,6-dihydro-pyridin-3-yl]-2-hydroxymethyl-phenyl}-8-fluoro-2H-phthalazin-1-one] came in with an IC50 of 6 nM.

The molecule `Cn1cc(-c2cccc(-n3ccc4cc(C5CC5)cc(F)c4c3=O)c2CO)cc(Nc2ccc(N3CCNCC3)cn2)c1=O` [Example I-52, 6-Cyclopropyl-8-fluoro-2-{2-hydroxymethyl-3-[1-methyl-6-oxo-5-(5-piperazin-1-yl-pyridin-2-ylamino)-1,6-dihydro-pyridin-3-yl]-phenyl}-2H-isoquinolin-1-one] showed a half-maximal inhibitory concentration (IC50) of 57 nM. The molecule `CCNC(C)(C)c1ccc(Nc2cc(-c3cccc(-n4ncc5cc(C(C)(C)C)cc(F)c5c4=O)c3CO)cn(C)c2=O)nc1` [Example I-47, 6-tert-Butyl-2-(3-{5-[5-(1-ethylamino-1-methyl-ethyl)-pyridin-2-ylamino]-1-methyl-6-oxo-1,6-dihydro-pyridin-3-yl}-2-hydroxymethyl-phenyl)-8-fluoro-2H-phthalazin-1-one] had a half-inhibitory concentration (IC50) of 6 nM.

The molecule `Cn1cc(-c2cccc(-n3ccc4cc(C(C)(C)C)cc(F)c4c3=O)c2CO)cc(Nc2ccc(C(=O)N3CCOCC3)cn2)c1=O` [Example I-63, 6-tert-Butyl-8-fluoro-2-(2-hydroxymethyl-3-{1-methyl-5-[5-(morpholine-4-carbonyl)-pyridin-2-ylamino]-6-oxo-1,6-dihydro-pyridin-3-yl}-phenyl)-2H-isoquinolin-1-one] returned an IC50 of 16 nM. The molecule `CN1CCN(c2ccc(Nc3cc(-c4cccc(-n5ccc6cc(C7CC7)cc(F)c6c5=O)c4CO)cn(C)c3=O)nc2)CC1` [Example I-54, 6-Cyclopropyl-8-fluoro-2-(2-hydroxymethyl-3-{1-methyl-5-[5-(4-methyl-piperazin-1-yl)-pyridin-2-ylamino]-6-oxo-1,6-dihydro-pyridin-3-yl}-phenyl)-2H-isoquinolin-1-one] gave an IC50 of 14 nM. Turning to `Cn1cc(-c2cccc(-n3ncc4cc(C(C)(C)C)cc(F)c4c3=O)c2CO)cc(Nc2ccn(C(C)(C)C)c(=O)n2)c1=O` [Example I-50, 6-tert-Butyl-2-{3-[5-(1-tert-butyl-2-oxo-1,2-dihydro-pyrimidin-4-ylamino)-1-methyl-6-oxo-1,6-dihydro-pyridin-3-yl]-2-hydroxymethyl-phenyl}-8-fluoro-2H-phthalazin-1-one], the IC50 came to 44 nM. With `CC(O)Cn1cc(Nc2nc(-c3cccc(-n4ncc5cc(C(C)(C)C)cc(F)c5c4=O)c3CO)cn(C)c2=O)cn1` (centres unmarked) [Example I-83, 6-tert-Butyl-8-fluoro-2-(2-hydroxymethyl-3-{6-[1-(2-hydroxy-propyl)-1H-pyrazol-4-ylamino]-4-methyl-5-oxo-4,5-dihydro-pyrazin-2-yl}-phenyl)-2H-phthalazin-1-one] the figure was 10 nM; with `Cn1cc(-c2cccc(-n3ncc4cc(C(C)(C)C)cc(F)c4c3=O)c2CO)cc(NC2=NCCO2)c1=O` [Example I-40, 6-tert-Butyl-2-{3-[5-(4,5-dihydro-oxazol-2-ylamino)-1-methyl-6-oxo-1,6-dihydro-pyridin-3-yl]-2-hydroxymethyl-phenyl}-8-fluoro-2H-phthalazin-1-one], 824 nM; with `CN(C)C(=O)C(C)(C)c1ccc(Nc2cc(-c3cccc(-n4ccc5cc(C6CC6)cc(F)c5c4=O)c3CO)cn(C)c2=O)nc1` [Example I-70, 2-(6-{5-[3-(6-Cyclopropyl-8-fluoro-1-oxo-1H-isoquinolin-2-yl)-2-hydroxymethyl-phenyl]-1-methyl-2-oxo-1,2-dihydro-pyridin-3-ylamino}-pyridin-3-yl)-N,N-dimethyl-isobutyramide], 22 nM. The molecule `CC(O)c1ccc(Nc2cc(-c3cccc(-n4ccc5cc(C6CC6)cc(F)c5c4=O)c3CO)cn(C)c2=O)nc1` (centres unmarked) [Example I-74, 6-Cyclopropyl-8-fluoro-2-(3-{5-[5-(1-hydroxy-ethyl)-pyridin-2-ylamino]-1-methyl-6-oxo-1,6-dihydro-pyridin-3-yl}-2-hydroxymethyl-phenyl)-2H-isoquinolin-1-one] returned an IC50 of 29 nM. With `Cn1cc(-c2cccc(-n3ncc4cc(C(C)(C)C)cc(F)c4c3=O)c2CO)cc(Nc2ccc3c(n2)CCNC3)c1=O` [Example I-41, 6-tert-Butyl-8-fluoro-2-{2-hydroxymethyl-3-[1-methyl-6-oxo-5-(5,6,7,8-tetrahydro-[1,6]naphthyridin-2-ylamino)-1,6-dihydro-pyridin-3-yl]-phenyl}-2H-phthalazin-1-one], half-maximal inhibition (IC50) required 33 nM. As to `Cn1cc(-c2cccc(-n3ccc4cc(C5CC5)cc(F)c4c3=O)c2CO)cc(Nc2ccc(C(=O)N3CCOCC3)cn2)c1=O` [Example I-51, 6-Cyclopropyl-8-fluoro-2-(2-hydroxymethyl-3-{1-methyl-5-[5-(morpholine-4-carbonyl)-pyridin-2-ylamino]-6-oxo-1,6-dihydro-pyridin-3-yl}-phenyl)-2H-isoquinolin-1-one], half-maximal inhibition (IC50) was put at 23 nM. With `Cn1cc(-c2cccc(-n3ccc4cc(C5CC5)cc(Cl)c4c3=O)c2CO)cc(Nc2ccc(C(=O)N3CCOCC3)cn2)c1=O` [Example I-53, 8-Chloro-6-cyclopropyl-2-(2-hydroxymethyl-3-{1-methyl-5-[5-(morpholine-4-carbonyl)-pyridin-2-ylamino]-6-oxo-1,6-dihydro-pyridin-3-yl}-phenyl)-2H-isoquinolin-1-one], the IC50 was determined as 609 nM. `Cn1cc(-c2cccc(-n3ncc4cc(C(C)(C)C)cc(F)c4c3=O)c2CO)cc(Nc2ccc(S(C)(=O)=O)cn2)c1=O` [Example I-18, 6-tert-Butyl-8-fluoro-2-{2-hydroxymethyl-3-[5-(5-methanesulfonyl-pyridin-2-ylamino)-1-methyl-6-oxo-1,6-dihydro-pyridin-3-yl]-phenyl}-2H-phthalazin-1-one] came in with an IC50 of 11 nM.
